Data on six molecules can be found in US8609836B2, “4-aryl-2-anilino-pyrimidines” (Janssen Pharmaceutica NV, priority 2008, dated 2013).

Each structure is given as a SMILES string. Bounds are passed on as bounds.

The target of test [1] is PLK4 (h) (Homo sapiens, UniProt O00444). Description: PLK-4 human kinase inhibition, scintillation proximity assay (SPA). Particulars: read-out: PLK4 pIC50 (converted). The format is biochemical. How it is done:
(§1) In the SPA technology the activity of the kinase of interest is measured using an appropriate biotinylated substrate that is incubated with the aforementioned kinase protein in the presence of (^33P) radiolabeled ATP. (^33P) Phosphorylation of the substrate is subsequently measured through binding of the phosphorylated substrate to streptavidine coated beads that are based on the scintillant poly(vinyl toluene) (PVT-Beads). The scintillation intensity is detected by imaging on Leadseeker.
(§2) All kinases are pre-diluted to a 10× working concentration prior to addition into the assay. The composition of the dilution buffer for each kinase is detailed below.
(6.0 μCi/ml). After incubation of 60 minutes at room temperature, the reaction is stopped by addition of 40 μL of stop solution containing 8.7 mM EDTA, BSA 0.17%, 0.17% Triton X-100, 1.7 mg/ml SPA beads (GE-healthcare). The plate is centrifuged and read for Scintillation imaging on Leadseeker.
For orientation: In a scintillation proximity assay essentially only radioactivity close to the scintillant gives light.

Test [2] has as its target AuroraB (h) (Homo sapiens, UniProt Q96GD4). As to the kind of experiment: Aurora-B human kinase inhibition, SPA. In kind it is biochemical. The note with it: read-out: AuroraB pIC50 (converted). How it is done: (§3) The in vitro inhibition of a panel of kinases was assessed using either the scintillation proximity assay (SPA) as described by Cook, N. D. et al., Advances in Experimental Medicine and Biology (1991), 36; p. 525-528.
as §1, §2
In a final reaction volume of 30 μl, AuroraB (h) (0.5 μg/ml) is incubated with 60 mM Hepes pH 7.5, 3 mM MgCl2, 3 mM MnCl2, 3 μM Na3VO4, 0.05 mg/ml PEG, 2 mM DTT, 3 μM Biotin-[…]-OH, 0.5 μM ATP and 2.2 nM [γ-^33P-ATP] (6.8 μCi/ml). After incubation of 60 minutes at room temperature, the reaction is stopped by addition of 40 μL of stop solution containing 8.7 mM EDTA, BSA 0.17%, 0.17% Triton X-100, 5 mg/ml SPA beads (GE-healthcare). The plate is centrifuged and read for Scintillation imaging on Leadseeker.

Test [3] deals with GSK3β (h) (Homo sapiens, UniProt P49841). As to the kind of experiment: GSK-3β human kinase inhibition, SPA. In kind it is biochemical. The note with it: read-out: GSK3b pIC50 (converted). The protocol:
as §3, §1, §2
In a final reaction volume of 30 μl, GSK3β (h) (1 μg/ml) is incubated with 25 mM Tris pH 7.4, 10 mM MgCl2, 1 mM DTT, 1 μM peptide Biotin-[…]-OH, 1 μM ATP and 2 nM [γ-^33P-ATP] (6.0 μCi/ml). After incubation of 60 minutes at room temperature, the reaction is stopped by addition of 40 μL of stop solution containing 8.7 mM EDTA, BSA 0.17%, 0.17% Triton X-100, 6.25 mg/ml SPA beads (GE-healthcare). The plate is centrifuged and read for Scintillation imaging on Leadseeker.

The target of test [4] is CDK1/CyclinB (h) (Homo sapiens, UniProt P06493). As to the kind of experiment: CDK1/CyclinB human kinase inhibition, Invitrogen's FRET assay (Z'lyte). The format is biochemical. Particulars: read-out: CDK1 pIC50 (converted). How it is done:
as §3, §2
In a final reaction volume of 10 μl, CDK1/CyclinB (h) (0.2 μg/ml) is incubated with 50 mM Hepes pH 7.5, 10 mM MgCl2, 1 mM EGTA, 0.01% Brij-35, 2 μM Z'lyte Ser/Thr peptide 12 and 10 μM ATP (Invitrogen's FRET assay). After incubation of 60 minutes at room temperature, the reaction is stopped by addition of 5 μL development reagent containing protease mix. After 60 minutes room temperature the development reaction is stopped by adding 5 μl stop solution. The plate is then read in fluorescence plate reader with excitation: 390 nm and dual emission: 460 and 538 nm. Emission ratio is determined to the formula=Emission signal intensity at 460 nm/Emission signal intensity at 538 nm.

Test [5] concerns the target PLK1 T210D (h) (Homo sapiens, UniProt P53350, T210D). Description: PLK1 human kinase inhibition, SPA. The format is biochemical. Particulars: read-out: PLK1 pIC50 (converted). The protocol:
as §3, §1, §2
In a final reaction volume of 30 μl, PLK1 T210D (h) (0.125 ng/ml) is incubated with 50 mM Hepes pH 8.0, 2 mM MnCl2, 1 mM DTT, 2 μM of peptide Biotin-Tds linker-[…], 0.1 μM ATP and 2 nM [γ-^33P-ATP] (6.0 μCi/ml). After incubation of 40 minutes at room temperature, the reaction is stopped by addition of 40 μL of stop solution containing 8.7 mM EDTA, BSA 0.17%, 0.17% Triton X-100, 25 mg/ml SPA beads (GE-healthcare). The plate is centrifuged and read for Scintillation imaging on Leadseeker.

In test [6] the target is PLK2 (h) (Homo sapiens, UniProt Q9NYY3). As to the kind of experiment: PLK2 human kinase inhibition, SPA. In kind it is biochemical. The note with it: read-out: PLK2 pIC50 (converted). The protocol:
as §3, §1, §2
In a final reaction volume of 30 μl, PLK2 (h) (30 μg/ml) is incubated with 50 mM Hepes pH 8.0, 2 mM MnCl2, 1 mM DTT, 2 μM of peptide Biotin-Tds linker-[…], 0.1 μM ATP and 2 nM [γ-^33P-ATP] (6.0 μCi/ml). After incubation of 20 minutes at room temperature, the reaction is stopped by addition of 40 μL of stop solution containing 8.7 mM EDTA, BSA 0.17%, 0.17% Triton X-100, 25 mg/ml SPA beads (GE-healthcare). The plate is centrifuged and read for Scintillation imaging on Leadseeker.

For test [7], the target named is PLK3 (h) (Homo sapiens, UniProt Q9H4B4). Description: PLK3 human kinase inhibition, SPA. The note with it: read-out: PLK3 pIC50 (converted). In kind it is biochemical. The protocol:
as §3, §1, §2
In a final reaction volume of 30 μl, PLK3 (h) (30 μg/ml) is incubated with 50 mM Hepes pH 8.0, 2 mM MnCl2, 1 mM DTT, 2 μM of peptide Biotin-Tds linker-[…], 0.1 μM ATP and 2 nM [γ-^33P-ATP] (6.0 μCi/ml). After incubation of 20 minutes at room temperature, the reaction is stopped by addition of 40 μL of stop solution containing 8.7 mM EDTA, BSA 0.17%, 0.17% Triton X-100, 25 mg/ml SPA beads (GE-healthcare). The plate is centrifuged and read for Scintillation imaging on Leadseeker.

The subject of test [8] is HCT-116. As to the kind of experiment: Cellular proliferation assay (Alamar blue), HCT-116. In kind it is cell-based. The note with it: Homo sapiens, 10% FCS, 72 hours with compound, Alamar blue 4 h. The protocol: (§4) […] functional properties of these compounds were tested in cellular proliferation assays on a panel of different cell lines in the presence of 10% FCS serum (37° C. and 5% (v/v) CO2). In a first step these cells were seeded and incubated for 24 hours in the absence of compound. In the second step the cells were incubated for 72 hours with the compounds to be tested for 72 hours. The viable cell number was finally assessed in a standard Alamar blue cell viability assay.
(§5) The viable cell number was assessed by incubation for either 4 h (HCT-116, H1299) 6 h (U87-MG) or 24 h (A2780, MDA-MB-231) with Alamar blue (Resazurin 9 μg/ml, K-Ferrocyanide 90 μM, K-Ferricyanide 90 μM) and the converted fluorescent product was quantified on a fluorescent plate reader (544 nm/590 nm). Effect of the compounds is calculated as of on control cells.

Test [9] relates to H1299. Description: Cellular proliferation assay (Alamar blue), H1299. The format is cell-based. The note with it: Homo sapiens, NCI-H1299; 10% FCS; 72 hours with compound; Alamar blue 4 h. How it is done: as §4, §5
The test system of test [10] is U87-MG. As to the kind of experiment: Cellular proliferation assay (Alamar blue), U87-MG. In kind it is cell-based. The note with it: Homo sapiens, U-87 MG; 10% FCS; 72 hours with compound; Alamar blue 6 h; read-out: U87-MG (cellular proliferation assay, Table 4) (converted). How it is done:
as §4, §5

Test [11] has as its system A2780. As to the kind of experiment: Cellular proliferation assay (Alamar blue), A2780. The note with it: Homo sapiens, 10% FCS, 72 hours with compound, Alamar blue 24 h, read-out: A2780 (cellular proliferation assay, Table 4) (converted). In kind it is cell-based. How it is done:
as §4, §5
In general terms: The colour change of resazurin is a common sign of viable cells or microbes.

Test [12] concerns MDA-MB-231. As to the kind of experiment: Cellular proliferation assay (Alamar blue), MDA-MB-231. In kind it is cell-based. Particulars: Homo sapiens, 10% FCS, 72 hours with compound, Alamar blue 24 h, read-out: MDA/MB231 (cellular proliferation assay, Table 4) (converted). How it is done:
as §4, §5

PLK1 T210D (h), sequence (P53350 whole entry T210D): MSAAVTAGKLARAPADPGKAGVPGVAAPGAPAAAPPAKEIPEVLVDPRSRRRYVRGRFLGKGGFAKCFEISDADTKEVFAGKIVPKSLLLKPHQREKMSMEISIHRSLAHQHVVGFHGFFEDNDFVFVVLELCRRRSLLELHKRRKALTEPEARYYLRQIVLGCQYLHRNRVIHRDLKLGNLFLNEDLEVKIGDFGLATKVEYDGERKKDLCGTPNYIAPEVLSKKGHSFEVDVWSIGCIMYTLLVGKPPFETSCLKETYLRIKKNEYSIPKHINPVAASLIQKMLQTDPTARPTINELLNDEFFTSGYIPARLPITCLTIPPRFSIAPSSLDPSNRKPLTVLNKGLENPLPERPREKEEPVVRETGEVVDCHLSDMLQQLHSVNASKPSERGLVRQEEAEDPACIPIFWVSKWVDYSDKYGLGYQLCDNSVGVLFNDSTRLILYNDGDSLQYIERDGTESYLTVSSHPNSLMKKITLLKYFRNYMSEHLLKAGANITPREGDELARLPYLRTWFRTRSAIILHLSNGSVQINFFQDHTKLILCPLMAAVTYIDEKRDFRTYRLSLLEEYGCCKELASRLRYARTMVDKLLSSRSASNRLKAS
PLK2 (h), sequence (Q9NYY3 whole entry): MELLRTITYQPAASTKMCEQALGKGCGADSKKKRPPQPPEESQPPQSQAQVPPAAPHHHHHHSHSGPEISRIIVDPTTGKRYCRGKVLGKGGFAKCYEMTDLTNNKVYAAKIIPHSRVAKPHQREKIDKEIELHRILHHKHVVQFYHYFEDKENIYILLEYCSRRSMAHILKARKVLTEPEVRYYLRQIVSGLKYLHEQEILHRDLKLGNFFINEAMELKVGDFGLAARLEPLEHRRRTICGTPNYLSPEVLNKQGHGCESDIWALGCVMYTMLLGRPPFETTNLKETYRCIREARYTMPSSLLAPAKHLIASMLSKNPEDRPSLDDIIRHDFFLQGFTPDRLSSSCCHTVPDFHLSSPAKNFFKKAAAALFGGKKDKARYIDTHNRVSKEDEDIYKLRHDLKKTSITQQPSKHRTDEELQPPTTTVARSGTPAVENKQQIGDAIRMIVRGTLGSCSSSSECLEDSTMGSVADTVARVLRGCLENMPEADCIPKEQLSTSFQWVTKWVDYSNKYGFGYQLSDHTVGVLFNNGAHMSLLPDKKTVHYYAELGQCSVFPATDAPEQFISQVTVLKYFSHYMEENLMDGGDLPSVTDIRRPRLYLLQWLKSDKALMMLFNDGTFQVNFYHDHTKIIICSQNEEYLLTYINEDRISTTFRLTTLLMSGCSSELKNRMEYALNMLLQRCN
CDK1/CyclinB (h), sequence (P06493 whole entry): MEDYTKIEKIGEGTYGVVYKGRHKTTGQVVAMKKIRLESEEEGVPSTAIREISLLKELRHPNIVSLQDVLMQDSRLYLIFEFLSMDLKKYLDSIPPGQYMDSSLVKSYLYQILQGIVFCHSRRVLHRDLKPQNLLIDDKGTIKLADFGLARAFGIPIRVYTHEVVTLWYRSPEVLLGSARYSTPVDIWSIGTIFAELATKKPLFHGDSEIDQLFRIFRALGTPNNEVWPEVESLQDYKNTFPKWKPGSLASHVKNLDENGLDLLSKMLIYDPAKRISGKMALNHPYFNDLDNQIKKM
CDK1/CyclinB (h), sequence (P14635 whole entry partner): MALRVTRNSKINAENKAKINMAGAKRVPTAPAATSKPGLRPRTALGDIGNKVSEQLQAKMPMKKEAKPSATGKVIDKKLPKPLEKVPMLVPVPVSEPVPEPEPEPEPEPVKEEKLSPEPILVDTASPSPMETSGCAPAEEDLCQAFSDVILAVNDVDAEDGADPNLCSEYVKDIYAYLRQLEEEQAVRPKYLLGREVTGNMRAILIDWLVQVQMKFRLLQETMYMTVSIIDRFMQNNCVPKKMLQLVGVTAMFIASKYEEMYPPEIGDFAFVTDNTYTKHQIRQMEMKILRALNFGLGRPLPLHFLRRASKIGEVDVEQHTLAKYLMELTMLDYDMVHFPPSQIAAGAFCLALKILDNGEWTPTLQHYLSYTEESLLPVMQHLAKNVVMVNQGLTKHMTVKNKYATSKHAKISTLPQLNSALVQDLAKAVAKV
PLK4 (h), sequence (O00444 whole entry): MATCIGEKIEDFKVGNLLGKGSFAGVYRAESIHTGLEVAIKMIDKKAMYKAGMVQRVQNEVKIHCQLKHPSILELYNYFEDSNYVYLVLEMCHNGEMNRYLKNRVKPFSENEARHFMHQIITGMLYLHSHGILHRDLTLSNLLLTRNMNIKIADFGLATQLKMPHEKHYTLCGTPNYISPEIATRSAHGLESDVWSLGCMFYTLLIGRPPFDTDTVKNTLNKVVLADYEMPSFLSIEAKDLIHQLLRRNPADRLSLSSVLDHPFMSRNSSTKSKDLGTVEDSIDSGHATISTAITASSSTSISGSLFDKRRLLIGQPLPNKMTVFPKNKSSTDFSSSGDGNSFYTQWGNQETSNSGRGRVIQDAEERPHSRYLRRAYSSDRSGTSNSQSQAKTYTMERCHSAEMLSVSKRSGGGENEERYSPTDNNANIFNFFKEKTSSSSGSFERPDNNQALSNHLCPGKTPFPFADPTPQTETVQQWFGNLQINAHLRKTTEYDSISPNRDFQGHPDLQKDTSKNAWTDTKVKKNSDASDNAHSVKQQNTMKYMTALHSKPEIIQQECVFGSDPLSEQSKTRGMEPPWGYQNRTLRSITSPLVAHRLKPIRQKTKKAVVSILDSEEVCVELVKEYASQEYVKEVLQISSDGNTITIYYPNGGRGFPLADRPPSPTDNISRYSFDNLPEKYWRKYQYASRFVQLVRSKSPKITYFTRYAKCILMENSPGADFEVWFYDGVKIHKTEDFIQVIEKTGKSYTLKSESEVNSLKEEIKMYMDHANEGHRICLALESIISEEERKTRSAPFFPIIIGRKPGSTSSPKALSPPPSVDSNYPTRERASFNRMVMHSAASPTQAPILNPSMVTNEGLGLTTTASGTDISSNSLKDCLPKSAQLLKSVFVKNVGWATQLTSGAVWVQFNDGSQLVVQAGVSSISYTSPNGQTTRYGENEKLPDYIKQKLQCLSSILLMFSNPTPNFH
AuroraB (h), sequence (Q96GD4 whole entry): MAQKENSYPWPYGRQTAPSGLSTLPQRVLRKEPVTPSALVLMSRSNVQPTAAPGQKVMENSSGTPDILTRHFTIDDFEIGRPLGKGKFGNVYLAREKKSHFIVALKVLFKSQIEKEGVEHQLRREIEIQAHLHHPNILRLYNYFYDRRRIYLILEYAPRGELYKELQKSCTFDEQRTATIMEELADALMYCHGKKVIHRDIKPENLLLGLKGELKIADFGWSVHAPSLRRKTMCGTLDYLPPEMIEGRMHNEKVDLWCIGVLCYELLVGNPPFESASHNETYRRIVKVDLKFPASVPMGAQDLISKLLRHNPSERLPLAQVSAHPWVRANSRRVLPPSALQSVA
PLK3 (h), sequence (Q9H4B4 whole entry): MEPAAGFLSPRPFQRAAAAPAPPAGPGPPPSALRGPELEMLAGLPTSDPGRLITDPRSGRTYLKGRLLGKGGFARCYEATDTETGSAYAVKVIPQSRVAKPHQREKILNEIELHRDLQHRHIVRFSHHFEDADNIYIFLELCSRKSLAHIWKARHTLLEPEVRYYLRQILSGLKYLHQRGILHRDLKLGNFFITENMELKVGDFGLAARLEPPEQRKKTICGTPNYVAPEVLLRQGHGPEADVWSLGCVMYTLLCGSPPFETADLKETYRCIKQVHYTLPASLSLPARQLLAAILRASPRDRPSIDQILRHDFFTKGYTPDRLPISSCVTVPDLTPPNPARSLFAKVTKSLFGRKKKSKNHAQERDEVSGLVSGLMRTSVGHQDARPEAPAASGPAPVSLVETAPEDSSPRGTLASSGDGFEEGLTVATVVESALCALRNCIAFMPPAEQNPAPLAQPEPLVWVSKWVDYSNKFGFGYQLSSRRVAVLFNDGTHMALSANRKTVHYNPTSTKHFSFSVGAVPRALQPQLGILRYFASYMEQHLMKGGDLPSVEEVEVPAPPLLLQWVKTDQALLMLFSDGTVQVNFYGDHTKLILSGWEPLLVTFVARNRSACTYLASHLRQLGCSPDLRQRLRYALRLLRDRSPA
GSK3β (h), sequence (P49841 whole entry): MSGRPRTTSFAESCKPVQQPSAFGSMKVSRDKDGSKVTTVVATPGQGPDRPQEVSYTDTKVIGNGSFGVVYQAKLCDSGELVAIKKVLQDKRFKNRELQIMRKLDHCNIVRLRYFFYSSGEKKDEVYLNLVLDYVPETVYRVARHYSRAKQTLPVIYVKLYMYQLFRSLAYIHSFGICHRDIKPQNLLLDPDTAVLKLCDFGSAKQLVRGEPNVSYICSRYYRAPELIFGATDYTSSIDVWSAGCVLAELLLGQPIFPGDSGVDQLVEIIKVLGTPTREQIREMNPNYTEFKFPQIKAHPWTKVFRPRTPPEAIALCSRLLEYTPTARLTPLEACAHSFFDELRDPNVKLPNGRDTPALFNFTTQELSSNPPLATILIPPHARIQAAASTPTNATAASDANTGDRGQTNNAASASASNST

With `CN1CCNC(=O)CN2CCN(CC2)Cc2cc(Br)cc(c2)Nc2nccc(n2)-c2ccc(cc2)C1` [Compound 129], the IC50 in test [1] was 1120 nM; in [2], above 10 µM; in [3], 490 nM; in test [4], 4.17 µM; in [5] it was above 10 µM; in test [6] it was above 10 µM. The IC50 in test [7] was above 3.02 µM; in test [8] it was 8.51 µM; in test [9], above 10 µM; in [10], 4.9 µM; in [11], above 10 µM; in [12] it was above 10 µM.
Take `O=C1NCCCOc2cccc(c2)-c2ccnc(n2)Nc2ccc(N3CCOCC3)c(c2)CN2C[C@H](O)C[C@@H]12` [Compound 99]: the IC50 in test [1] was 3630 nM; in [2] it was above 10 µM; in test [3], 417 nM; in test [4] it was above 10 µM; in test [5], above 10 µM; in [6] it was above 10 µM. Also, the IC50 in test [7] was above 10 µM; in test [8] it was 6.92 µM; in [9], above 10 µM; in test [10] it was 6.92 µM; in [11], 7.76 µM; in [12] it was above 10 µM.
For `COc1ccc2cc1CN(C)CCNC(=O)[C@H](CO)NCc1cccc(c1)Nc1nccc-2n1` [Compound 120], the IC50 in test [1] is 7080 nM; in test [2], above 10 µM; in test [3] it was above 10000 nM; in test [4] it was above 10 µM; in [5] it was above 10 µM; in test [6] it was above 10 µM. The IC50 in test [7], in [8], in test [9], in test [10], in test [11] and in test [12] was above 10 µM throughout.
In the case of `O=C1NCCNCc2ccc(cc2)-c2ccnc(n2)Nc2ccc(N3CCOCC3)c(c2)CN[C@H]1Cc1ccccc1` [Compound 117], the IC50 in test [1] was 2240 nM; in test [2], above 10 µM; in [3], 1000 nM; in test [4], above 10 µM; in test [5], above 10 µM; in test [6] it was above 10 µM. Besides, the IC50 in test [7] was above 10 µM; in test [8] it was 4.27 µM; in test [9], 7.59 µM; in test [10], 3.89 µM; in test [11] it was 6.03 µM; in [12], above 10 µM.
In the case of `CC(C)Nc1cc2cc(c1)Nc1nccc(n1)-c1ccc(cc1)CN(C)CCCNC(=O)[C@H](CO)NC2` [Compound 111], the IC50 was 813 nM in [1]; above 10 µM in [2]; above 10000 nM in test [3]; above 10 µM in test [4]; above 10 µM in test [5]; above 3.02 µM in test [6]. In addition, the IC50 in [7], in [8], in test [9], in test [10], in test [11] and in [12] was above 10 µM each time.
In the case of `O=C1NCc2cccc(c2)-c2ccnc(n2)Nc2cc(ccc2Cl)CN2CCC1CC2` [Compound 123], the IC50 in test [1] was 8130 nM; in [2], above 10 µM; in [3] it was 2750 nM; in [4] it was 1.91 µM; in test [5] it was above 10 µM; in [6] it was above 10 µM. Also, the IC50 in test [7], in test [8], in test [9], in [10], in test [11] and in test [12] was above 10 µM in each case.
